According to patent US20190388421A1, “NOVEL COMPOUNDS AND PHARMACEUTICAL COMPOSITIONS THEREOF FOR THE TREATMENT OF FIBROSIS” (Galapagos NV, priority 2016, published 2019):

Assays:
[1] = molecular target: T1, human GPCR sphingosine 1-phosphate receptor 5 (S1PR5) (Homo sapiens, UniProt Q9H228); assay: S1PR5 selectivity assay (Ca2+ flux, antagonist, S1PR5 specific agonist trigger); type: cell-based; details: S1P5 antagonist EC50, CHO cells overexpressing human S1PR5 and Gq protein
T1 construct: host or cells: CHO
Method: (§1) After readout of the agonist activity, the plates are incubated for 15 min at 37° C. and 5% CO2. Then, cells are stimulated with 10 μL Sphingosine-1-Phosphate (S1P) (Avanti Polar lipids-860492P) at its EC80 concentration. Intracellular Ca^2+ changes are immediately measured by reading fluorescence during 3 min (FDSS/μCELL reader). The ratio of the maximal fluorescence over the background fluorescence before compound injection is used to determine compound response.
(§2) For EC50 determination, a 10 point dilution series of compounds starting from 23.3 μM and 20 μM highest final concentration for agonist and antagonist respectively, ⅓ dilution was performed.
(§3) The obtained ratio's for agonist and antagonist readout were normalized versus vehicle and EC100 of S1P as controls for agonist mode and versus vehicle and EC80 of S1P for antagonist mode. From these normalized data EC50 of the compounds are derived.
(§4) To evaluate the selectivity of the compounds for S1PR2 over S1PR1 and S1PR5, a similar assay set up as described above for the S1PR2 calcium flux assays was performed: CHO cells stably overexpressing human GPCR sphingosine 1-phosphate receptor 1 and Gq protein (Euroscreen, FAST-0197A) or overexpressing human GPCR sphingosine 1-phosphate receptor 5 and Gq protein were used (Perkin Elmer, ES-593-A). In case of the S1PR5 assay triggering was done with an S1PR5 specific agonist instead of with S1P (Hobson et al., 2015).

[2] = molecular target: T2, human GPCR sphingosine 1-phosphate receptor 2 (S1PR2) (Homo sapiens, UniProt O95136); assay: S1P2 antagonist assay (Ca2+ flux, S1P at EC80); type: cell-based; details: CHO-S1PR2 cells, highest concentration 20 μM
T2 construct: host or cells: CHO
Method: Triggering of S1PR2 by administration of Sphingosine-1-phosphate leads to a transient increase in intracellular Ca^2+. The Ca^2+ flux assays are measuring the release of Ca^2+ intracellularly by use of a Ca^2+ sensitive fluorescent dye. The assay is firstly run in agonist mode (incubation of compounds alone) to ensure that the Ca^2+ released measured is not caused by the test compound having an agonistic effect. Then the assay is continued in antagonist mode (Sphingosine-1-Phosphate added to incubated medium containing the test compounds).
CHO cells stably overexpressing human GPCR sphingosine 1-phosphate receptor 2 (CHO—S1PR2 Perkin Elmer; ES-594-A) are seeded from a frozen stock in 384 wells sterile microplates (50 μL; 7,500 cells/well) and are incubated overnight at 37° C. and 5% CO2. The next day cells are washed twice with starvation medium (F-12 Ham's medium containing 0.1% BSA (Fatty acid free: FAF)) and left in […] starvation medium for 1 h at 37° C., 5% CO2. After this starvation cells are incubated with […] buffer containing the Ca^2+-sensitive fluorescent dye (0.5 mg Fluo8+125 mg Allura Red in 100 ml of 1% DMSO, in HBSS+20 mM Hepes+5 mM probenecid). The cells are incubated for an additional 1 hour after which 10 μL compounds, diluted in HBSS buffer with 20 mM Hepes and 0.1% BSA (FAF), are added to the cells and intracellular Ca^2+ changes are immediately measured by reading fluorescence during 3 min (FDSS/μCELL reader). The ratio of the maximal fluorescence over the background fluorescence before compound injection is used to determine compound response.
as §1, §2, §3

[3] = molecular target: T3, human GPCR sphingosine 1-phosphate receptor 1 (S1PR1) (Homo sapiens, UniProt P21453); assay: S1PR1 selectivity assay (Ca2+ flux, antagonist); type: cell-based; details: S1P1 antagonist EC50, CHO cells overexpressing human S1PR1 and Gq protein
T3 construct: host or cells: CHO
Method: as §1, §2, §3, §4

S1PR2 = molecular target: T4, S1PR2 (Homo sapiens, UniProt O95136); assay: GTP-γS binding assay ([35S]GTPγS, S1P at EC80, S1PR2 membranes); type: biochemical; details: membranes from stable cell line over expressing S1PR2, read-out: S1PR2 EC
T4 construct: expressed in transfected cells
Method: The following assay can be used for determination of S1PR2 activation. The [^35S] GTPγS assay measures the level of G protein activation following agonist occupation of a GPCR, by determining the binding of the non-hydrolysable analog [^35S] GTPγS to Gα subunits.
The assay is performed in a 96 well plate where the following reagents are added. First 50 μL compound is added into the assay plate, followed by addition of 20 μL S1P at EC80 concentration (concentration which gives 80% of the activity of S1PR2). Then, 30 μL of a mixture consisting of membranes-GTPγS-SpA beads is added [mixture consists of 2.5 μg/well membranes derived from stable cell line over expressing S1PR2 (membranes are pre-incubated with 1 μM GDP for 15 min at 4° C.), 0.1 nM [35S]GTPγS (Perkin Elmer, NEG030) and 0.5 mg/well PVT-WGA SpA beads (Perkin Elmer, RPNQ0001)]. All components are diluted in assay buffer containing 20 mM Tris pH 7.5; 10 mM MgCl2; 100 mM NaCl; 0.1% BSA FAF; 50 ug/ml saponin. After an incubation for 4 h at room temperature, plates are centrifuged at 2000 rpm during 20 min. Plates are read on a Topcount reader (Perkin Elmer) immediately after centrifugation (readout time, 1 min/well).

HFL-1 cells [4] = assay: IL8 assay in the presence of Human Serum Albumin; type: cell-based; details: HFL1, S1P (5 μM) induced IL-8, HFL-1 cells, with 2% HSA, read-out: HSA IL8 EC50
Method: (§5) S1P is able to induce cytokines such as IL-8 in a process that is S1PR2 dependent (O'Sullivan et al, 2014; Bruennert et al, 2015). This assay is designed to test inhibitory activity of compounds on S1P induced IL-8 on HFL-1 cells, a human fetal lung fibroblast cell line.
To evaluate the influence of plasma protein binding of Sip as well as compound, the S1P induced IL-8 levels were evaluated in presence of 2% Human Serum Albumin (HSA, equivalent to 40% human serum). By adding 2% HSA, which affects both the activity of the compounds as well as the S1P potency, the physiological condition are reproduced and the shift in potency expected under in vivo serum conditions can be measured.
(§6) Human Fetal Lung cells (HFL-1) are seeded in 96 well plates in growth medium (F12K+10% heat inactivated FBS+1% Pen/strep). After overnight incubation at 37° C., 5% CO2 cells are refreshed with starvation medium with HSA (F12K+1% FBS+1% Pen/strep+1.95% HSA). On day three, compounds are added (10 point serial dilution, 30 μM highest concentration, 1/3 dilution, 0.3% DMSO final) and plates are incubated for 1 h at 37° C., 5% CO2. Subsequently S1P at 5 μM final concentration is added and plates are incubated for 16 to 24 h at 37° C., 5% CO2 after which the supernatant was collected. IL-8 levels in the supernatant are determined with the IL-8 ELISA of R&D systems.

HFL-1 cells [5] = assay: IL8 assay (S1P induced IL-8 production); type: cell-based; details: Homo sapiens, HFL1; S1P (1 μM) induced IL-8, HFL-1 cells, without HSA
Method: as §5
as §6, with “medium without” for “medium with”, “FBS+1% Pen/strep).” for “FBS+1% Pen/strep+1.95% HSA).”, “concentration, ⅓” for “concentration, 1/3”, “for one hour” for “for 1 h”, “at 1” for “at 5”, “24 hours” for “24 h”

T2 sequence (O95136 whole entry): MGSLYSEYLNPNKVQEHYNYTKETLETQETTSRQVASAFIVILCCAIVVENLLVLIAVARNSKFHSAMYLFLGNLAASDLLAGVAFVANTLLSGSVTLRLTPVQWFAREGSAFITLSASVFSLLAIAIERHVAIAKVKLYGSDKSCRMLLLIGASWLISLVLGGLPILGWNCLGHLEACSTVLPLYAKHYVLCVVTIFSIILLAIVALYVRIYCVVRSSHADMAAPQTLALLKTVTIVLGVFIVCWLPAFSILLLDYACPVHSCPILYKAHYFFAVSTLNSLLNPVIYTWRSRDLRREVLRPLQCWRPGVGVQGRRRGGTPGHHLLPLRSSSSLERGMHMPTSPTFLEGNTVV
T4 sequence (O95136 whole entry): as above
T1 sequence (Q9H228 whole entry): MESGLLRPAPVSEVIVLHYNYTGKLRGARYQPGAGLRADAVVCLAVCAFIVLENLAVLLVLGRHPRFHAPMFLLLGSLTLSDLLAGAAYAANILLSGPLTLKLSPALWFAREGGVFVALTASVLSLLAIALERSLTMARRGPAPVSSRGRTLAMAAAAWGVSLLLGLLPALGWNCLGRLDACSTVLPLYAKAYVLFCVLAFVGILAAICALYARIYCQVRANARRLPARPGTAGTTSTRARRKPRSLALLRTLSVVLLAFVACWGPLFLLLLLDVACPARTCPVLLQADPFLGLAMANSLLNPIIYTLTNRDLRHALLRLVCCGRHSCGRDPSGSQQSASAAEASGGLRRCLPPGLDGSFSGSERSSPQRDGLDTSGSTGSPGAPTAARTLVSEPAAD
T3 sequence (P21453 whole entry): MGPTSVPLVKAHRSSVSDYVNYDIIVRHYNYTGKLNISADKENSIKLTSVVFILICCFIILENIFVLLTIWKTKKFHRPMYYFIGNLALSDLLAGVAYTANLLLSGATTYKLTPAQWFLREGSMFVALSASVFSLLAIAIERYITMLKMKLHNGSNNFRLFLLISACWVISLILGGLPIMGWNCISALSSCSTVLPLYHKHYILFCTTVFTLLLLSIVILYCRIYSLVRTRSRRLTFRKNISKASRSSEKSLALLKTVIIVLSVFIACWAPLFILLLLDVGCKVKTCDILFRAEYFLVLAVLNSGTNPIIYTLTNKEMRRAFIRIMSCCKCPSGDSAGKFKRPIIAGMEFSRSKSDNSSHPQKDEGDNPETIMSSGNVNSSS

SMILES | EC50 [1] [µM] | EC50 [2] [µM] | EC50 [3] [µM] | EC50 (S1PR2) [µM] | IC50 (HFL-1 cells [4]) [µM] | EC50 (HFL-1 cells [5]) [µM]
COCCOc1cc(NC(=O)NCc2cc(C)c(-c3cn(C)nc3C(F)(F)F)nn2)cc(Cl)n1 [Compound 27, 1-[2-chloro-6-(2-methoxyethoxy)-4-pyridyl]-3-[[5-methyl-6-[1-methyl-3-(trifluoromethyl)pyrazol-4-yl]pyridazin-3-yl]methyl]urea] | ≥ 19.8 | 0.414 | ≥ 19.8 | 0.641 |  | 
Cc1cc(CNC(=O)Nc2cc(C#N)nc(OCC(F)F)c2)nnc1-c1cn(C)nc1C(F)(F)F [Compound 28, 1-[2-cyano-6-(2,2-difluoroethoxy)-4-pyridyl]-3-[[5-methyl-6-[1-methyl-3-(trifluoromethyl)pyrazol-4-yl]pyridazin-3-yl]methyl]urea] | 6.61 | 0.016 | 6.61 | 0.0897 |  | 
Cc1cc(CNC(=O)Nc2cc(OCC(C)(F)F)nc(C(F)(F)F)c2)nnc1-c1cn(C)nc1C(F)(F)F [Compound 34, 1-[2-(2,2-difluoropropoxy)-6-(trifluoromethyl)-4-pyridyl]-3-[[5-methyl-6-[1-methyl-3-(trifluoromethyl)pyrazol-4-yl]pyridazin-3-yl]methyl]urea] | 6.61 | 0.0658 | 2.02 | 0.408 |  | 
Cc1cc(CNC(=O)Nc2cc(OCC3COCCO3)nc(C(F)(F)F)c2)nnc1-c1cn(C)nc1C(F)(F)F (stereo not shown) [Compound 37, 1-[2-(1,4-dioxan-2-ylmethoxy)-6-(trifluoromethyl)4-pyridyl]-3-[[5-methyl-6-[1-methyl-3-(trifluoromethyl)pyrazol-4-yl]pyridazin-3-yl]methyl]urea] | ≥ 19.8 | 5.43 | ≥ 19.8 | 9.58 |  | 
Cc1cc(CNC(=O)Nc2ccnc(C(F)(F)F)c2)nnc1-c1cn(C)nc1C(F)(F)F [Compound 43, 1-[[5-methyl-6-[1-methyl-3-(trifluoromethyl)pyrazol-4-yl]pyridazin-3-yl]methyl]-3-[2-(trifluoromethyl)-4-pyridyl]urea] | ≥ 19.8 | 6.03 | ≥ 19.8 | 4.65 |  | 
Cc1cc(CNC(=O)Nc2ccnc(Cl)c2)nnc1-c1cn(C)nc1C(F)(F)F [Compound 44, 1-(2-chloro-4-pyridyl)-3-[[5-methyl-6-[1-methyl-3-(trifluoromethyl)pyrazol-4-yl]pyridazin-3-yl]methyl]urea] | ≥ 19.8 | 4.5 | ≥ 19.8 | 4.15 |  | 
CCOc1nc(C#N)cc(NC(=O)NCc2cc(C)c(-c3cn(C)nc3C(F)(F)F)nn2)c1C1CC1 [Compound 58, 1-(6-cyano-3-cyclopropyl-2-ethoxy-4-pyridyl)-3-[[5-methyl-6-[1-methyl-3-(trifluoromethyl)pyrazol-4-yl]pyridazin-3-yl]methyl]urea] | ≥ 19.8 | 0.0696 | ≥ 19.8 | 0.223 |  | 
Cn1cc(-c2nnc(CNC(=O)Nc3cc(Cl)nc(OCC(F)F)c3)cc2C2CC2)c(C(F)(F)F)n1 [Compound 61, 1-[2-chloro-6-(2,2-difluoroethoxy)-4-pyridyl]-3-[[5-cyclopropyl-6-[1-methyl-3-(trifluoromethyl)pyrazol-4-yl]pyridazin-3-yl]methyl]urea] | 4.04 | 0.014 | 0.919 | 0.193 |  | 
Cn1cc(-c2nnc(CNC(=O)Nc3cc(Cl)nc(OCC(F)F)c3)cc2N2CCOCC2)c(C(F)(F)F)n1 [Compound 62, 1-[2-chloro-6-(2,2-difluoroethoxy)-4-pyridyl]-3-[[6-[1-methyl-3-(trifluoromethyl)pyrazol-4-yl]-5-morpholino-pyridazin-3-yl]methyl]urea] | 11 | 3.13 | 0.345 | 2.37 |  | 
CCOc1cc(NC(=O)NCc2nnc(-c3cn(C)nc3C(F)(F)F)c(C)c2C)cc(C(F)(F)F)n1 [Compound 66, 1-[[4,5-dimethyl-6-[1-methyl-3-(trifluoromethyl)pyrazol-4-yl]pyridazin-3-yl]methyl]-3-[2-ethoxy-6-(trifluoromethyl)-4-pyridyl]urea] |  | 4.25 |  |  | 29.9 | 0.996
Cc1cc(CNC(=O)Nc2cc(OCC(=O)N(C)C)nc(C(F)(F)F)c2)nnc1-c1cn(C)nc1C(F)(F)F [Compound 67, N,N-dimethyl-2-[[4-[[5-methyl-6-[1-methyl-3-(trifluoromethyl)pyrazol-4-yl]pyridazin-3-yl]methyl-carbamoyla-mino]-6-(trifluoromethyl)-2-pyridyl]oxy]acetamide] |  |  |  | 28.7 | 9.95 | 2.18
Cc1cn(-c2nnc(CNC(=O)Nc3cc(Cl)nc(OCC(F)F)c3)cc2C)c(C)n1 [Compound 70] | ≥ 19.8 | 0.904 | ≥ 19.8 | 0.904 |  | 
CCOc1nc(C)cc(NC(=O)NCc2cc(C)c(-c3cn(C)nc3C(F)(F)F)nn2)c1C#N [Compound 77, 1-(3-cyano-2-ethoxy-6-methyl-4-pyridyl)-3-[[5-methyl-6-[1-methyl-3-(trifluoromethyl)pyrazol-4-yl]pyridazin-3-yl]methyl]urea] |  |  |  | 20 | 29.9 | 2.74
